According to US20260137079A1, “DISPENSER AND METHOD OF USE THEREOF” (priority 2019, published 2026):

Assay: Suppression of recrystallization of actives that are solid at room temperature
Format: physicochemical
Conditions: glycol ether solvent with Transfluthrin (TFT)

## COCC(C)OCC(C)OC (stereo not shown) [DMM, Dipropylene glycol Dimethyl Ether]
  effect on recrystallization of actives solid at room temperature: suppress the recrystallization
